Eight compounds from BindingDB's records for doi:10.1021/bi300261p (University of Colorado Boulder, 2012) can be followed below.

The assay concerns the target T1, Pentachlorophenol 4-monooxygenase (Sphingobium chlorophenolicum, UniProt P42535).
T1 sequence (P42535 whole entry): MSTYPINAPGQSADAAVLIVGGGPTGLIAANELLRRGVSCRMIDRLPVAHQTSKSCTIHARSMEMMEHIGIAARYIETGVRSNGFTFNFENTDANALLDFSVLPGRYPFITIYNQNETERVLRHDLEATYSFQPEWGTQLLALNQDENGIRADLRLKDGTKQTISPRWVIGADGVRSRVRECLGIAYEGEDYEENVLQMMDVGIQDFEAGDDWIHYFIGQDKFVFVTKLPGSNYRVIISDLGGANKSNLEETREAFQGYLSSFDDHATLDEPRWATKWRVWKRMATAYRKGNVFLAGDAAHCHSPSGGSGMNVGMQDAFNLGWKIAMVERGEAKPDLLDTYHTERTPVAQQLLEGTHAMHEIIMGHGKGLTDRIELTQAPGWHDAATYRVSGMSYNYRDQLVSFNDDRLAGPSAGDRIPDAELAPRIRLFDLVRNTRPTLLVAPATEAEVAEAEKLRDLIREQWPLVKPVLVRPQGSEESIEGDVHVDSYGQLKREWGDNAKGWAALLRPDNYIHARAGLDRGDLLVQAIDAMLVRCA
Nature of the assay: Spectroscopic Assay. The procedure: Formation of the hydroxylated product and depletion of NADPH were measured following ethyl acetate extraction of the reaction mixture.
Broadly, the Kd is the equilibrium constant for the complex coming apart. Consider `Oc1c(Cl)c(Cl)cc(Cl)c1Cl` [2,3,4,6-Tetrachlorophenol (TCP)], for which the affinity, expressed as Kd, was 11 µM. In other words, the double-digit micromolar range.
The value for `Oc1c(Cl)cc(Cl)cc1Cl` [2,4,6-Trichlorophenol (2,4,6-TriCP)] was 7 µM; that for `Oc1c(Cl)cccc1Cl` [2,6-Dichlorophenol] was 45.5 µM.
In the case of `Oc1ccccc1Cl` [2-Chlorophenol (2-CP)], the Kd is more than 1000 µM.
Regarding `Oc1cc(Cl)cc(Cl)c1` [3,5-Dichlorphenol (3,5-DCP)], the dissociation constant (Kd) was more than 500 µM.
To `Oc1c(Cl)c(Cl)c(Cl)c(Cl)c1Cl` [Pentachlorophenol (PCP)] belongs less than 0.05 µM; to `Oc1cc(Cl)c(Cl)c(Cl)c1` [SMR001307309], more than 500 µM; to `Oc1c(Cl)c(Cl)c(O)c(Cl)c1Cl` [Tetrachlorohydroquinone (TCHQ)], 4.2 µM.
